Measured values from ChEMBL document CHEMBL1201862, “PubChem BioAssay data set” (2004).
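Grown in 96-well plates, cells were treated for 48 hours with each compound at five concentrations. Insufficient inhibition: endpoint recorded as highest concentration tested. The concentration for 50% growth inhibition is given as GI50.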 Active and inactive are the calls of the source. Rule as the data show it: active = GI50 up to about 1.1 µM and inactive = higher.

Key:
Experiment in all cases: NCI tumour cell line growth inhibition, 48 h
[1] = system: LXFL 529
[2] = system: SNB-78
[3] = system: DMS-273
[4] = system: M19-MEL
[5] = system: DLD-1
[6] = system: HOP-18
[7] = system: XF498
[8] = system: RXF 631
[9] = system: KM-20L2

Row | Compound | GI50 [1] | GI50 [2] | GI50 [3] | GI50 [4] | GI50 [5] | GI50 [6] | GI50 [7] | GI50 [8] | GI50 [9]
1 | CCOC(=O)C(=C=Cc1cccs1)C(=O)c1ccccc1 | 14.9 µM (inactive) | 18.3 µM (inactive) | 17.4 µM (inactive) | 17.2 µM (inactive) | 14.3 µM (inactive) | 17.5 µM (inactive) | 16.2 µM (inactive) |  | 
2 | COc1ccc(Nc2nc3c(N)cc(C(F)(F)F)cc3nc2-c2ccccc2)cc1 | 78.2 µM (inactive) | 60.4 µM (inactive) | > 100 µM (inactive) | > 100 µM (inactive) | > 100 µM (inactive) | 36.7 µM (inactive) | 31.7 µM (inactive) | 44.6 µM (inactive) | > 100 µM (inactive)
3 | COC(=O)/C(C#N)=C1\CCC(C(=O)OC)N1C (centres undefined) |  | > 100 µM (inactive) | > 100 µM (inactive) | > 100 µM (inactive) | > 100 µM (inactive) |  | > 100 µM (inactive) | > 100 µM (inactive) | > 100 µM (inactive)
4 | C=Cc1c(-c2ccccc2)cnc2[nH]c3ccccc3c12 | > 50 µM (inactive) |  | > 50 µM (inactive) | > 50 µM (inactive) | > 50 µM (inactive) |  | > 50 µM (inactive) |  | 
5 | Cc1cccc2c1CCC21OC(=O)c2c1ccc1ccccc21 (centres undefined) | 47.6 µM (inactive) |  | 32.7 µM (inactive) | 49 µM (inactive) | 83.9 µM (inactive) | 42 µM (inactive) |  | 24.4 µM (inactive) | 53.8 µM (inactive)
6 | CC(=O)Oc1ccccc1C(=O)C1c2cccc(O)c2C(=O)c2c(O)cccc21 | 1.29 µM (inactive) | 1.27 µM (inactive) | 1.24 µM (inactive) | 1.01 µM (active) | 1.23 µM (inactive) | 2.16 µM (inactive) | 0.561 µM (active) | 3.01 µM (inactive) | 2.4 µM (inactive)
7 | O=C1CSC(/C(=C/c2ccccc2)c2nc3ccccc3[nH]2)=N1 | 47.4 µM (inactive) | > 100 µM (inactive) |  | 65.9 µM (inactive) | > 100 µM (inactive) |  | 41.3 µM (inactive) |  | > 100 µM (inactive)
8 | CCCC(O)c1cn(-c2cccc(S(=O)(=O)O)c2)nn1 (centres undefined) | > 100 µM (inactive) | > 100 µM (inactive) | > 100 µM (inactive) | > 100 µM (inactive) | > 100 µM (inactive) | > 100 µM (inactive) | > 100 µM (inactive) | > 100 µM (inactive) | > 100 µM (inactive)
9 | NC(=O)C(=O)n1ncc(Cl)c(Cl)c1=O | 15.1 µM (inactive) | 20.3 µM (inactive) | 25 µM (inactive) | 24.7 µM (inactive) | 15.3 µM (inactive) | 20 µM (inactive) | 17 µM (inactive) |  | 28.7 µM (inactive)
10 | CCc1cccc(CC)c1NC(=O)C1=C(C)NC(C)=C(C(=O)Nc2c(CC)cccc2CC)C1c1ccc2c(c1)OCO2 | 15.9 µM (inactive) | 22.6 µM (inactive) | 13.3 µM (inactive) | 16.7 µM (inactive) | 24.3 µM (inactive) | 20.6 µM (inactive) |  |  | 16.9 µM (inactive)
11 | [N-]=[N+]=NC(c1cn(C2CC(O)C(CO)O2)c(=O)[nH]c1=O)C(Br)Br (centres undefined) | > 100 µM (inactive) | > 100 µM (inactive) | > 100 µM (inactive) | > 100 µM (inactive) | > 100 µM (inactive) | > 100 µM (inactive) |  |  | > 100 µM (inactive)
12 | C/C(=N/Nc1ccc([N+](=O)[O-])cc1[N+](=O)[O-])C(CC(C(=O)Nc1ccccc1C)/C(C)=N\Nc1ccc([N+](=O)[O-])cc1[N+](=O)[O-])C(=O)Nc1ccccc1C (centres undefined) | 14.3 µM (inactive) | 16.4 µM (inactive) | 14.8 µM (inactive) | 12.4 µM (inactive) | 28.4 µM (inactive) | 14.4 µM (inactive) | 14.5 µM (inactive) |  | 31 µM (inactive)
13 | N#CCC(=O)N1CCCCCCC1 | 77.8 µM (inactive) | > 100 µM (inactive) | 35.7 µM (inactive) |  | > 100 µM (inactive) |  |  |  | > 100 µM (inactive)
14 | O=C(COC(=O)c1cccc2c(=O)c3ccccc3[nH]c12)Nc1ccc(Cl)cc1 | 61.7 µM (inactive) | 25.7 µM (inactive) |  | > 100 µM (inactive) | 16.9 µM (inactive) | > 100 µM (inactive) | 46.8 µM (inactive) |  | > 100 µM (inactive)
15 | CCN(CC)Cc1cc(Nc2c3ccccc3nc3c2[nH]c2ccccc23)ccc1O | 1.39 µM (inactive) | 2 µM (inactive) | 0.565 µM (active) | 1.63 µM (inactive) | 1.25 µM (inactive) | 1.6 µM (inactive) | 1.76 µM (inactive) | 1.8 µM (inactive) | 0.867 µM (active)
16 | COC1(C)C(=O)N2C1N(C(=O)OC(C)(C)C)CC2(C)C (centres undefined) | > 100 µM (inactive) | > 100 µM (inactive) | > 100 µM (inactive) | > 100 µM (inactive) | > 100 µM (inactive) | > 100 µM (inactive) |  |  | > 100 µM (inactive)
17 | COC(=O)C1=C(O)C(O)=C(C(=O)OC)CC1 | > 100 µM (inactive) | > 100 µM (inactive) | > 100 µM (inactive) | > 100 µM (inactive) | > 100 µM (inactive) | > 100 µM (inactive) | > 100 µM (inactive) |  | 
